Usually IC50 stands for the concentration that inhibits the measured activity by half. What is called CC50 is the concentration giving 50% cytotoxicity.

Data set [1] concerns Leishmania amazonensis. In words: Antileishmanial activity against Leishmania amazonensis axenic amastigote assessed as inhibition of parasite growth incubated for 72 hrs by MTT colorimetric assay. Format: functional, organism-based. (In general: Formazan colour is commonly taken as a measure of viable cells.)
For data set [2], the system named is Leishmania amazonensis. In words: Antileishmanial activity against Leishmania amazonensis promastigote assessed as inhibition of parasite growth incubated for 72 hrs by MTT colorimetric assay. It counts as functional, organism-based.
Data set [3] is described as follows: Cytotoxicity against mouse J774.A1 cells incubated for 72 hrs by MTT colorimetric assay. Format: toxicity, cell-based.
Data set [4] can be described thus: Selectivity index, ratio of CC50 for cytotoxicity against mouse J774.A1 cells to IC50 for antileishmanial activity against Leishmania amazonensis axenic amastigote assessed as inhibition of parasite growth. Format: toxicity, cell-based. The conditions noted are these: read-out: Ratio CC50/IC50.
Data set [5] in a line: Selectivity index, ratio of CC50 for cytotoxicity against mouse J774.A1 cells to IC50 for antileishmanial activity against Leishmania amazonensis promastigote assessed as inhibition of parasite growth. Format: toxicity, cell-based. The conditions noted are these: read-out: Ratio CC50/IC50.

Structures are written as SMILES. Where only a bound is given, the exact number is not on record here.

For the compound `N#Cc1c(/N=C/c2c[nH]c3ccc(Br)cc23)sc2c1CCCCCC2`, the IC50 is 3.8 µM in data set [1] and 4.75 µM in data set [2]. This compound also had a CC50 at 72 h in data set [3] greater than 100 µM. For the same compound, the selectivity ratio in data set [4] is greater than 26.3; in data set [5], greater than 21.1.

As to `N#Cc1c(N)sc2c1CCCCC2`, the half-inhibitory concentration (IC50) in data set [1] came out at 2.79 µM. In data set [3], this compound displayed a CC50 at 72 h of 99.5 µM. Also, the selectivity ratio in data set [4] was 35.7; in data set [5], 31.1.

Turning to `N#Cc1c(/N=C/c2c[nH]c3ccc(Br)cc23)sc2c1CCC2`, the IC50 in data set [1] and in data set [2] was greater than 10 µM in each case. Further, the CC50 at 72 h in data set [3] is greater than 100 µM.

Take `N#Cc1c(N)sc2c1CCCCCC2`: the IC50 in data set [1] was found to be 9.8 µM; in data set [2], 1.2 µM. In data set [3], this compound registered a CC50 at 72 h of 43.9 µM. The values for the selectivity ratio in data set [4] and in data set [5] were 4.47 and 36.6, respectively.

As to `N#Cc1ccsc1/N=C/c1c[nH]c2ccc(Br)cc12`, the results for the IC50 in data set [1] and in data set [2] were 0.71 µM and 9.7 µM, respectively. The midpoint of cytotoxicity in data set [3], the CC50 at 72 h, lay at 84.7 µM. Moreover, the selectivity ratio came out at 119 in data set [4] and 8.73 in data set [5].

With `N#Cc1c(/N=C/c2c[nH]c3ccc(Br)cc23)sc2c1CCCCCCCCCC2`, the IC50 in data set [1] and in data set [2] was greater than 10 µM in each case. Also, the CC50 at 72 h in data set [3] is greater than 100 µM.

Take `N#Cc1c(/N=C/c2c[nH]c3ccc(Br)cc23)sc2c1CCNC2`: the IC50 in data set [1] and in data set [2] was greater than 10 µM each time. Besides, in data set [3], it took 11.2 µM to reach half-maximal cytotoxicity (CC50 at 72 h).

With `COc1ccc2[nH]cc(/C=N/c3sc4c(c3C#N)CCCCCC4)c2c1`, the values for the IC50 in data set [1] and in data set [2] were 2160 µM and 900 µM, respectively.

In the case of `CC1CCc2c(sc(/N=C/c3c[nH]c4ccc(Br)cc34)c2C#N)C1` (stereo unspecified), the values for the IC50 in data set [1] and in data set [2] were 8.72 µM and 9.9 µM, respectively. The compound also showed a CC50 at 72 h in data set [3] greater than 100 µM. The selectivity ratio in data set [4] was greater than 11.5; in data set [5] it was greater than 10.1.

Regarding `N#Cc1c(N)sc2c1CCCC2`, the IC50 in data set [1] was greater than 10 µM.

The values are drawn from ChEMBL document CHEMBL5385897, “Computer-Aided drug design of new 2-amino-thiophene derivatives as anti-leishmanial agents” (Eur J Med Chem, 2023).
